US9968574B2, “Treatment of MCI and Alzheimer's disease” (The University of Kentucky Research Foundation, priority 2009, dated 2018)
Entries after “also recorded” stand apart in the source; their conditions may differ. Like-named read-outs stand apart in the source and are kept apart here.

Experiments:
[1] = mouse, in vivo
Description: (§1) Based on the in vitro data described above, the inventors initiated an acute exposure study in 3 month old C57-Black-6 (C57BL/6) mice.

Human astrocytoma cells = assay: Inflammatory cytokine ELISAs in astrocytoma cultures; assay type: cell-based; settings: for IL-1 secreted in the medium / IL-6 secreted in the medium / TNF-α secreted in the medium: 24 hours
Method: Following exposure medium was collected from each well and levels of inflammatory cytokines ([…], TNF-α, TGF-β and […]) were determined using commercially available ELISAs.
It was reported that inflammatory response elements (cytokines) are elevated in Alzheimer's disease patients. The inventors tested the nifedipine mix and individual analogs in astrocytoma cultures. Human astrocytoma cells were plated at 2.5×10^5 cells/well in 6 well culture plates and were grown for 24 hours. […] Three 6-well plates were subjected to each treatment. Following treatment, medium was collected from each well and levels of IL-1β, IL-6, TNF-α and TGF-β were measured using commercially available ELISAs.
Using a similar procedure to that described in Example 3, NFD-L1 was tested in astrocytoma cultures.

[2] = tested on: H4 neuroglioblastoma cells stably transfected to overexpress amyloid precursor protein (APP); assay: Aβ1-42 secreted into medium by H4 cells overexpressing APP, ELISA; assay type: cell-based
Method: H4 neuroglioblastoma cells stably transfected with a construct overexpressing amyloid precursor protein (APP) secret Aβ1-42 into the culture medium. […] The Aβ levels in the culture medium were measured using ELISAs (Invitrogen).
We then tested if other calcium channel blockers can inhibit Aβ 1-42 generation in H4 neuroglioma cultures. Known calcium channel blockers such as Amilodpine, Dilitiazem, Felodipine, Isradipine, Nicardipine, and Nimodipine were used in this experiment.

beta secretase (BACE) = target: T1, beta secretase (BACE) (Homo sapiens, UniProt P56817); assay: BACE activity, fluorescent substrate and purified recombinant BACE (Invitrogen kit); assay type: biochemical
T1 construct: purchased Invitrogen
T1 sequence (P56817 46-501): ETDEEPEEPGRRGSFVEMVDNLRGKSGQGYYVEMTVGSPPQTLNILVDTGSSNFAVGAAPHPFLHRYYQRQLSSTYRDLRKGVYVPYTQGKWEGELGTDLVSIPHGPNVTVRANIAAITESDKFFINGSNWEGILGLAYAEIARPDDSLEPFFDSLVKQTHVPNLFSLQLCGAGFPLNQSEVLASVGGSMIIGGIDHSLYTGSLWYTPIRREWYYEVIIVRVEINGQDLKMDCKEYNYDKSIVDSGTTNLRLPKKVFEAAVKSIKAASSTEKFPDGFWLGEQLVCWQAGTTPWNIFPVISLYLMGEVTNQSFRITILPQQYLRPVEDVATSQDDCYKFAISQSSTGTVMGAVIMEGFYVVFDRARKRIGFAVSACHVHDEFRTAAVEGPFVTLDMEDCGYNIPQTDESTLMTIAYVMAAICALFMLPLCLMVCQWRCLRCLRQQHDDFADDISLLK
Method: BACE activity was measured using a fluorescent substrate and purified recombinant BACE as part of a commercial kit from Invitrogen.
Using a similar procedure as described in Example 8, NFD-L1 was tested for inhibition of BACE activity.

[3] = tested on: H4 neuroglioma cultures that overexpress APP; assay: Levels of enzymes involved in Aβ processing in H4 cultures overexpressing APP, immunohistochemistry; assay type: cell-based
Method: Following treatment, cultures were rinsed three times in PBS and fixed in 70% methanol/30% acetone for 30 minutes at −20° C. Cultures were then subjected to immunohistochemistry for BACE, PS-1, GPCR-3, nicastrin, and ADAM (the enzyme responsible for alpha secretase cleavage). 30 to 50 cells were imaged in 4-5 fields/dish (3 dishes each treatment) (FIG. 22). […] Alpha secretase cleavage leads to decreased Aβ1-42.
Using a similar procedure as described in Example 13, H4 neuroglioma cultures were treated with NFD-L1 to determine the effects of NFD-L1 on levels of enzymes involved in Aβ processing.

mice = assay: Aβ and Aβ processing proteins in mice, ELISA and Western blot; assay type: in vivo, mouse; settings: IP injections (nitroso-nifedipine 35 mg/kg, 3 days)
Method: It is contemplated that increased ADAM-10 levels lead to increased cleavage at the alpha secretase position of APP, minimizing generation of Aβ.
The effects of NFD-L1 on levels of enzymes involved in Aβ processing in vivo were determined using a similar procedure to that described in Example 15.

PDS/TTR complex [4] = assay: PDS/TTR complex expressed into culture medium by choroid plexus epithelial cells, Western blot; assay type: cell-based, human; settings: control epithelial cells, 5 μM acrolein, 72 hours
Method: For these experiments, primary cultures of choroid plexus epithelial cells were established from short post mortem interval autopsies using established methods. AD and normal control cultures were grown to confluence in MEM growth medium containing 2% fetal bovine serum and 1% epithelial growth factor (EGF). Normal control cultures were switched to Opti-MEM containing N2 supplement and were treated with vehicle (controls) or with 5 μM acrolein for 72 hours. […] After treatment, medium was collected from each flask and was desalted using PD-10 columns. The eluted proteins were then freeze-dried, resuspended in 25 μl water and analyzed using Western blot analysis and antibodies specific to PDS and TTR.
The amount of PDS/TTR secreted into the culture medium by each culture was determined by Western blot analysis as described above.

PDS/TTR complex [5] = assay: PDS/TTR-positive epithelial cells by immunostaining; assay type: cell-based, human; settings: acrolein alone
Description: In addition, immunostaining was used to determine the PDS/TTR-positive cells and the numbers of PDS/TTR-positive cells from treated and untreated cell cultures were counted and compared.

[6] = Liver toxicity study: serum alkaline phosphatase in mice; assay type: in vivo, mouse
H4 neuroglioma cultures [7] = assay: Calcium influx after KCl depolarization in H4 cultures, Fluo-4 AM confocal microscopy; assay type: cell-based; settings: 1 μM nifedipine or […] nitroso-nifedipine, 1 hour
Method: Cells were depolarized by addition of 40 μL 100 mM KCl and calcium levels quantified 30 seconds following depolarization by confocal microscopy (n=75-100 cells/dish for 3 dishes/treatment).

H4 neuroglioma cultures [8] = assay: Survival of H4 cells, MTT reduction; assay type: cell-based; settings: increasing concentrations, 16 hours
Method: Specifically, H4 neuroglioma cultures were plated at a density of 2.5×10^5 cells/well and allowed to attach overnight. […] Following treatment, MTT was added at a final concentration of 0.5 mg/mL and cultures incubated for 30 minutes. Following MTT treatment, medium was removed and the formazan crystals generated by mitochondrial conversion of MTT were dissolved in DMSO and absorbance was measured at 650 nm. Data are reported as mean±SEM % control MTT reduction (FIG. 21).

C57/B16 mice [9] = assay: Brain Aβ1-40 in mice given nitroso-nifedipine IP, Covance ELISA; assay type: in vivo, mouse; settings: 35 mg/kg IP, 3 days
Method: The animals were sacrificed 15 minutes following the final injection. Brains were quickly removed, split into hemispheres, and snap frozen in liquid nitrogen. Brains were shipped on dry ice and maintained at −80° C. until used for analysis. One hemisphere of each brain was homogenized in diethylamine (200 mg wet weight/mL) containing complete protease inhibitors using a Dounce homogenizer. Homogenate was centrifuged at 16,000×g for 30 minutes and 50 μL soluble protein subjected to Aβ1-40 quantification using a Covance ELISA per manufacturer's instructions. Results are expressed as % vehicle treated animals.

[10] = tested on: orphan G-coupled receptor protein 3 (GPCR-3); settings: mice of Example 10
Method: as §1
In addition, GPCR-3 levels were determined in the C57BL/6 mice described above in Example 10 using Western blot analysis.

C57/B16 mice [11] = assay: EAAT2 in tissue of treated mice, Western blot; assay type: in vivo, mouse; settings: 25 mg/kg, 3 days
[12] = tested on: orphan G-coupled receptor protein 3 (GPCR-3); settings: H4 cells, 1 μM (0.5 μM T3/0.5 μM T4), 16 hours
Method: Levels of GPCR-3 were measured using Western blot analysis using a GPCR-3 specific antibody.

SMILES	IL-1 secreted in the medium (Human astrocytoma cells)	IL-6 secreted in the medium (Human astrocytoma cells)	TNF-α secreted in the medium (Human astrocytoma cells)	BACE activity (beta secretase (BACE); agent alone)	ADAM-10 level [3]	BACE protein level [3]	PS-1 level [3]	nicastrin (NCT) level [3]	ADAM-10 level (mice)	Aβ1-40 level (mice)	cleaved Notch-1 level (mice)	presenilin-1 level (mice)	BACE activity (beta secretase (BACE); in combination with thyroxine)	further results
COC(=O)c1c(C)nc(C)c(C(=O)OC)c1-c1ccccc1[N+](=O)[O-] [oxidized nifedipine, 2,6-dimethyl-4-(2-nitrophenyl)-3,5-pyridinedicarboxylic acid dimethyl ester]	significantly reduced	significantly reduced	significantly reduced	–	–	–	–	–	–	–	–	–	–	presence in brain extracts (passing the blood-brain barrier) [1]: found in all samples analyzed
COc1ccc([C@@H]2Sc3ccccc3N(CCN(C)C)C(=O)[C@@H]2OC(C)=O)cc1 [Dilitiazem, reference compound]	–	–	–	–	–	–	–	–	–	–	–	–	–	Aβ formation, calcium channel blocker combined with T3/T4 ([2]; 1 μM with T3/T4, 16 hours): significant decrease
COC(=O)c1c(C)nc(C)c2c(=O)[nH]c3ccccc3c12 [NFD-L1]	significantly reduced	significantly reduced	significantly reduced	significantly inhibits	significant increase	significant decrease	significant decrease	significant decrease	significant increase	significant decrease	significant increase	significant decrease	–	Aβ 1-42 generation ([2]; procedure similar to Example 6): inhibited; inflammatory cytokine production (Human astrocytoma cells): inhibited
C=CC=O [acrolein]	–	–	–	–	–	–	–	–	–	–	–	–	–	expression of the PDS/TTR complex in culture medium (PDS/TTR complex [4]): increased; number of PDS/TTR-positive cells, % of untreated control (PDS/TTR complex [5]): about 600%
COC(=O)c1c(C)nc(C)c(C(=O)OC)c1-c1ccccc1N=O [nitroso-nifedipine, 2,6-dimethyl-4-(2-nitrosophenyl)-3,5-pyridinedicarboxylic acid dimethyl ester]	–	–	–	significant inhibition; also recorded: significantly inhibits	significant increase	significant decrease	did not significantly alter	did not significantly alter	significant increase	significant decrease	significant increase	significant decrease	significant inhibition	serum alkaline phosphatase level ([6]; 35 mg/kg): significant decrease; serum alkaline phosphatase level ([6]; any dose): did not significantly increase; liver damage ([6]; mice): does not induce liver damage; Ca influx following depolarization (H4 neuroglioma cultures [7]): significant increase; GPCR-3 level [3]: significant increase; resistance (survival) of H4 cultures compared to nifedipine (H4 neuroglioma cultures [8]): more resistant; levels of Aβ1-40, % vehicle treated animals (C57/B16 mice [9]): significant decrease
COC(=O)C1=C(C)NC(C)=C(C(=O)OC)C1c1ccccc1[N+](=O)[O-] [nifedipine, 1,4-dihydro-2,6-dimethyl-4-(2-nitrophenyl)-3,5-pyridinedicarboxylic acid dimethyl ester]	–	–	–	slightly inhibited	–	–	–	–	–	–	–	–	slightly inhibited	GPCR-3 expression level [10]: reduced; EAAT2 level (C57/B16 mice [11]): significant increase; GPCR-3 expression level [12]: significantly reduced
